Assay [1] concerns MCF-7 (breast adenocarcinoma). Nature of the assay: MTT proliferation assay, MCF-7. It is filed as cell-based, Human. As to conditions: for IC50: Homo sapiens, MCF7, 72 h, MTT. The essentials:
(§1)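 Read-out: A570 after 3 h MTT and DMSO solubilisation, converted to percentage of growth per NIH formulas; IC50 by regression analysis. Exposure: 72 h, 0.01–100 μM, 5000 cells/well plated 24 h earlier in DMEM/10% FBS.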

Assay [2] can be described thus: DPPH radical scavenging assay. It is filed as biochemical. The essentials:
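Compounds at 0.06, 0.12, 0.18, 0.23, 0.25 and 0.28 mM reacted with the stable DPPH• radical. Absorbance at 517 nm was read 5 and 10 min after mixing to follow DPPH reduction, with L-ascorbic acid as the reference.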

Another assay deals with MCF-7 cells. As to the kind of experiment: Seahorse XF Cell Mito Stress Test, MCF-7. The class given is cell-based, Human. The method, then: The Seahorse XF Cell Mito Stress Test was used for measurements of mitochondrial respiration by direct assessment of the oxygen consumption rate (OCR), of treated and untreated cells on the Seahorse XFe24 Analyzer, (Agilent, Santa Clara, CA, USA). Key parameters of the mitochondrial function were measured by direct assessment of the OCR, by use of the Mito Stress Test (Agilent, Agilent, Santa Clara, CA, USA). The Mito Stress Test uses modulators of respiration that target components of the electron transport chain in the mitochondria. The compounds added to the reaction were: oligomycin, mitochondrial oxidative phosphorylation uncoupler carbonyl cyanide-4-(trifluoromethoxy)phenylhydrazone (FCCP), and the mix of rotenone and antymicin A. These were directly injected to the cell growth medium containing cells treated with selected L-ASA derivatives to determine the production of ATP, respiration at maximal level, and the non-mitochondrial respiration. Measured parameters were used for calculation of the proton leakage, spare respiratory capacity, and basal respiration. The assay was performed according to the manufacturer’s instructions (SeaHorse—Mito Stress Test: Agilent, Santa Clara, CA, USA). Briefly, selected compound 4e was tested due to its selective antiproliferative effect on MCF-7 cells. […] […] The experiment was performed with biological duplicates.

Assay [3] has as its system SW620 (colorectal adenocarcinoma, metastatic). Nature of the assay: MTT proliferation assay, SW620. As to conditions: Homo sapiens, SW-620, 72 h. The class given is cell-based. A digest of the protocol: as §1
Assay [4] deals with HepG2 (hepatocellular carcinoma). Nature of the assay: MTT proliferation assay, HepG2. The class given is cell-based. As to conditions: Homo sapiens, 72 h. A digest of the protocol: as §1
Where [5] appears, read: 5 min treatment, read-out: IC50 of DPPH• inhibition, Treatm. 5 min.
The mark [6] stands for this setting: 10 min treatment, read-out: IC50 of DPPH• inhibition, Treatm. 10 min.

These results are taken from publication PMC6801448, “The Antioxidant and Antiproliferative Activities of 1,2,3-Triazolyl-L-Ascorbic Acid Derivatives” (International Journal of Molecular Sciences, 2019).

Like-named read-outs stand apart in the source and are kept apart here.

As to `O=C1O[C@H]([C@@H](O)Cn2cc(-c3ccc(Br)cc3)nn2)C(O)=C1O` [Compound 4e, 6-[4-(4-bromophenyl)-1,2,3-triazol-1-yl]-6-deoxy-L-ascorbic acid], the IC50 in assay [1] was 6.72 µM; in assay [2] (setting [5]) it was 200 ± 10 µM; in assay [2] (setting [6]) it was 190 ± 10 µM; in assay [3], over 100 µM; in assay [4] it was over 100 µM. In addition, in assay [1] (WI-38 versus MCF-7), the “selectivity index, SI” value amounted to 11. In addition, the “basal respiration and ATP production” value with MCF-7 cells (MCF-7, 24 h, IC50 concentration (6.72 µM) and 2 × IC50 (13.44 µM)) was “increased the basal respiration and ATP production”. For the same compound, in the assay on MCF-7 cells (MCF-7, 24 h, lower tested concentration (3.36 µM)), the cellular mitochondrial metabolism entry is given as “lowered cellular mitochondrial metabolism”.

`O=C1O[C@H]([C@@H](O)CO)C(O)=C1O` [L-ASA, L-ascorbic acid]: the IC50 in assay [1] is over 100 µM; in assay [2] (setting [5]), 180 ± 60 µM; in assay [2] (setting [6]), 170 ± 50 µM; in assay [3], over 100 µM; in assay [4], over 100 µM. Moreover, the “pIC50 (negative logarithm of DPPH• IC50)” value in assay [2] (calculated from IC50 values of Table 1) is 3.75. In addition, the mitochondrial activity entry in the assay with MCF-7 cells (24 h, lower concentration (50 mM), Figure 5 panel A (MCF-7 and HFF-1)) is listed as “did not act on the mitochondrial activity”. Besides, the “basal cell respiration and ATP production” value with MCF-7 cells (MCF-7, 24 h, higher concentrations) is “decreased the basal cell respiration and ATP production”.
